These molecules were tested against human recombinant P2X7 receptor (Homo sapiens (Human), UniProt Q99572) (assay: YO-PRO assay: P2X7 receptor antagonistic activity (ATP-induced YO-PRO-1 uptake, FLIPR)). Conditions: not given.
human recombinant P2X7 receptor, sequence (Q99572 whole entry): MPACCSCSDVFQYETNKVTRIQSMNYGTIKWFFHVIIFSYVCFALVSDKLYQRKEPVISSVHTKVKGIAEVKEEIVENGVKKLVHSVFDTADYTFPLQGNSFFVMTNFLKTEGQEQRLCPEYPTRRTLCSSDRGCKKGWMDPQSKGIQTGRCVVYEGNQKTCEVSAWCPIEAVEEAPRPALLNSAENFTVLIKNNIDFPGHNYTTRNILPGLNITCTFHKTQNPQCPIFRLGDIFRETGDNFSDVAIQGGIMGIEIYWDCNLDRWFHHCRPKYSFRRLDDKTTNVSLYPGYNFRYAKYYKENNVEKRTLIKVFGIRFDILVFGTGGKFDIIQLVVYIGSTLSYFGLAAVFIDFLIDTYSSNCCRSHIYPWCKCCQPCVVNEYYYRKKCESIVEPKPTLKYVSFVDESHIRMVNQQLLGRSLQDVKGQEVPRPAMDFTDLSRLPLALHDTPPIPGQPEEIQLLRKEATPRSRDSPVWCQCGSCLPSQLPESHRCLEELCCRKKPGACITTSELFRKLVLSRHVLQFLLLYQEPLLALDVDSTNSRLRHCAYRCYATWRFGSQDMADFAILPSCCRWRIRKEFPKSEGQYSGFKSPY

Point of comparison: `O=C(NCc1c(Cl)cc(Cl)cc1CO)C1CCOc2ncccc21` (racemic) [Example 51, rac-3,4-Dihydro-2H-pyrano[2,3-b]pyridine-4-carboxylic acid 2,4-dichloro-6-hydroxymethyl-benzylamide], IC50 5.6 nM. Against it:
- CN(Cc1ccc(Cl)cc1)C(=O)C1COc2ncccc21 (racemic) [Example 48, rac-2,3-Dihydro-furo[2,3-b]pyridine-3-carboxylic acid (4-chloro-benzyl)-methyl-amide] — 190-fold higher, 1090 nM
- O=C(NCCc1ccc(Cl)cc1Cl)C1COc2ncccc21 (racemic) [Example 49, rac-2,3-Dihydro-furo[2,3-b]pyridine-3-carboxylic acid [2-(2,4-dichloro-phenyl)-ethyl]-amide] — 28-fold higher, 157 nM
- O=C(NCc1c(Cl)cc(Cl)cc1OCCO)C1COc2ncccc21 (racemic) [Example 50, rac-2,3-Dihydro-furo[2,3-b]pyridine-3-carboxylic acid 2,4-dichloro-6-(2-hydroxy-ethoxy)-benzylamide] — 9.8-fold higher, 54.6 nM
- O=C(NCc1ccc(OC(F)(F)F)c(F)c1)C1CCOc2ncccc21 (racemic) [Example 53, rac-3,4-Dihydro-2H-pyrano[2,3-b]pyridine-4-carboxylic acid 3-fluoro-4-trifluoromethoxy-benzylamide] — 210-fold higher, 1190 nM
- O=C(NCC1(c2ccccc2)CCCCC1)C1CCOc2ncccc21 (racemic) [Example 54, rac-3,4-Dihydro-2H-pyrano[2,3-b]pyridine-4-carboxylic acid (1-phenyl-cyclohexylmethyl)-amide] — 4.6-fold higher, 25.8 nM
- O=C(NCc1cccc(C(F)(F)F)c1Cl)C1(F)COc2ncccc21 (racemic) [Example 55, rac-3-Fluoro-2,3-dihydro-furo[2,3-b]pyridine-3-carboxylic acid 2-chloro-3-trifluoromethyl-benzylamide] — 7.4-fold higher, 41.6 nM
- O=C(NC1(c2ccc(Cl)cc2Cl)CC1)C1CCOc2ncccc21 (racemic) [Example 58, rac-3,4-Dihydro-2H-pyrano[2,3-b]pyridine-4-carboxylic acid [1-(2,4-dichloro-phenyl)-cyclopropyl]-amide] — 480-fold higher, 2700 nM
- N#Cc1ccc(CNC(=O)C2COc3ncccc32)c(Cl)c1 (racemic) [Example 61, rac-2,3-Dihydro-furo[2,3-b]pyridine-3-carboxylic acid 2-chloro-4-cyano-benzylamide] — 69-fold higher, 389 nM
- NC(=O)C1(NC(=O)C2COc3ncccc32)CCCC1 (racemic) [Example 63, rac-2,3-Dihydro-furo[2,3-b]pyridine-3-carboxylic acid (1-carbamoyl-cyclopentyl)-amide] — 690-fold higher, 3850 nM
- O=C(NCc1c(Cl)cc(Cl)cc1C(F)(F)F)C1COc2ncccc21 (racemic) [Example 68, rac-2,3-Dihydro-furo[2,3-b]pyridine-3-carboxylic acid 2,4-dichloro-6-trifluoromethyl-benzylamide] — 2.5-fold higher, 13.8 nM
- COCc1cc(Cl)cc(Cl)c1CNC(=O)C1COc2ncccc21 (racemic) [Example 72, rac-2,3-Dihydro-furo[2,3-b]pyridine-3-carboxylic acid 2,4-dichloro-6-methoxymethyl-benzylamide] — 2.6-fold higher, 14.6 nM
- O=C1CC(NC(=O)C2COc3ncccc32)c2ccccc21 (racemic) [Example 88, rac-2,3-Dihydro-furo[2,3-b]pyridine-3-carboxylic acid (3-oxo-indan-1-yl)-amide] — 260-fold higher, 1450 nM
- O=C1CC(NC(=O)C2COc3ncccc32)c2ccccc21 (racemic) [Example 89, rac-2,3-Dihydro-furo[2,3-b]pyridine-3-carboxylic acid (3-oxo-indan-1-yl)-amide] — 450-fold higher, 2510 nM
- O=C(NCc1c(Cl)cc(Cl)cc1COCCO)C1COc2ncccc21 (racemic) [Example 93, rac-2,3-Dihydro-furo[2,3-b]pyridine-3-carboxylic acid 2,4-dichloro-6-(2-hydroxy-ethoxymethyl)-benzylamide] — 2-fold higher, 11.4 nM
- [2H]C([2H])([2H])c1cc(Cl)cc(Cl)c1CNC(=O)C1COc2ncccc21 (racemic) [Example 96, rac-2,3-Dihydro-furo[2,3-b]pyridine-3-carboxylic acid 2,4-dichloro-6-trideuteromethyl-benzylamide] — 2.1-fold lower, 2.7 nM
- O=C(NCc1ccc(C(F)(F)F)cc1Cl)C1COc2ncccc21 (racemic) [Example 103, rac-2,3-Dihydro-furo[2,3-b]pyridine-3-carboxylic acid 2-chloro-4-trifluoromethyl-benzylamide] — 14-fold higher, 80.4 nM
- O=C(NCCCc1ccc(Cl)cc1Cl)C1COc2ncccc21 (racemic) [Example 106, rac-2,3-Dihydro-furo[2,3-b]pyridine-3-carboxylic acid [3-(2,4-dichloro-phenyl)-propyl]-amide] — 62-fold higher, 346 nM
- O=C(NCc1c(Cl)cc(Cl)cc1Cl)C1COc2ncccc21 (racemic) [Example 114, rac-2,3-Dihydro-furo[2,3-b]pyridine-3-carboxylic acid 2,4,6-trichloro-benzylamide] — 2.2-fold higher, 12.5 nM
- O=C(NCc1c(Cl)cccc1CO)C1COc2ncccc21 (racemic) [Example 118, rac-2,3-Dihydro-furo[2,3-b]pyridine-3-carboxylic acid 2-chloro-6-hydroxymethyl-benzylamide] — 54-fold higher, 304 nM
- O=C(NC(CO)C1CCCCCC1)C1COc2ncccc21 (single isomer, unassigned) [Example 13, rac-2,3-Dihydro-furo[2,3-b]pyridine-3-carboxylic acid (1-cycloheptyl-2-hydroxy-ethyl)-amide] — 150-fold higher, 813 nM
- O=C(NC(CO)C1CCCCCC1)C1COc2ncccc21 (single isomer, unassigned) [Example 14, rac-2,3-Dihydro-furo[2,3-b]pyridine-3-carboxylic acid (1-cycloheptyl-2-hydroxy-ethyl)-amide] — 21-fold higher, 117 nM
- Cc1ncc(C(CNC(=O)C2COc3ncccc32)N2CCC(F)(F)CC2)cn1 (single isomer, unassigned) [Example 27, rac-2,3-Dihydro-furo[2,3-b]pyridine-3-carboxylic acid [2-(4,4-difluoro-piperidin-1-yl)-2-(2-methyl-pyrimidin-5-yl)-ethyl]-amide] — 240-fold higher, 1360 nM
- Cc1ncc(C(CNC(=O)C2COc3ncccc32)N2CCC(F)(F)CC2)cn1 (single isomer, unassigned) [Example 28, rac-2,3-Dihydro-furo[2,3-b]pyridine-3-carboxylic acid [2-(4,4-difluoro-piperidin-1-yl)-2-(2-methyl-pyrimidin-5-yl)-ethyl]-amide] — 11-fold higher, 58.9 nM
- O=C(NCC(c1cnc(C(F)(F)F)nc1)N1CCOCC1)C1COc2ncccc21 (single isomer, unassigned) [Example 59, rac-2,3-Dihydro-furo[2,3-b]pyridine-3-carboxylic acid [2-morpholin-4-yl-2-(2-trifluoromethyl-pyrimidin-5-yl)-ethyl]-amide] — 62-fold higher, 346 nM
- O=C(NCC(c1cnc(C(F)(F)F)nc1)N1CCOCC1)C1COc2ncccc21 (single isomer, unassigned) [Example 60, rac-2,3-Dihydro-furo[2,3-b]pyridine-3-carboxylic acid [2-morpholin-4-yl-2-(2-trifluoromethyl-pyrimidin-5-yl)-ethyl]-amide] — 5.2-fold higher, 29 nM

Same assay, conditions: read-out: IC50 [nM], antagonistic activities with respect to the P2X7 receptor

Work on `Cc1cc(Cl)cc(Cl)c1CNC(=O)C1COc2c1ccc[n+]2[O-]` (racemic) [Example 115, rac-7-Oxy-2,3-dihydro-furo[2,3-b]pyridine-3-carboxylic acid 2,4-dichloro-6-methyl-benzylamide] yielded an IC50 of 35.4 nM.

Same assay, conditions: read-out: IC50 [nM], antagonistic activities with respect to the P2X7 receptor; HEK-293 cells expressing human recombinant P2X7 receptor; YO-PRO-1 fluorescence; ATP 250 μM, 90 minutes; highest concentration 10 μM

Point of comparison: `Cc1cc(Cl)cc(Cl)c1CNC(=O)C1COc2ncccc21` (single isomer, unassigned) [Example 4, 2,3-Dihydro-furo[2,3-b]pyridine-3-carboxylic acid 2,4-dichloro-6-methyl-benzylamide], IC50 2.9 nM. Against it:
- O=C(N[C@H](CO)C1CCCCC1)C1COc2ncccc21 (single isomer, unassigned) [Example 1] — 370-fold higher, 1070 nM
- O=C(N[C@H](CO)C1CCCCC1)C1COc2ncccc21 (single isomer, unassigned) [Example 2] — 37-fold higher, 106 nM
- Cc1cc(Cl)cc(Cl)c1CNC(=O)C1COc2ncccc21 (single isomer, unassigned) [Example 3, 2,3-Dihydro-furo[2,3-b]pyridine-3-carboxylic acid 2,4-dichloro-6-methyl-benzylamide] — 6.3-fold higher, 18.3 nM
- O=C(N[C@H](CO)c1ccc(Cl)cc1Cl)C1COc2ncccc21 (single isomer, unassigned) [Example 6] — 210-fold higher, 621 nM
- O=C(N[C@H](CO)c1ccc(Cl)cc1Cl)C1COc2ncccc21 (single isomer, unassigned) [Example 7] — 40-fold higher, 117 nM
- Cc1cc(Cl)cc(Cl)c1CNC(=O)C1CCOc2ncccc21 (single isomer, unassigned) [Example 17, 3,4-Dihydro-2H-pyrano[2,3-b]pyridine-4-carboxylic acid 2,4-dichloro-6-methyl-benzylamide] — 2.2-fold lower, 1.3 nM
- Cc1cc(Cl)cc(Cl)c1CNC(=O)C1CCOc2ncccc21 (single isomer, unassigned) [Example 18, 3,4-Dihydro-2H-pyrano[2,3-b]pyridine-4-carboxylic acid 2,4-dichloro-6-methyl-benzylamide] — 1.8-fold lower, 1.6 nM
- O=C(NCc1c(Cl)cc(Cl)cc1CO)C1COc2ncccc21 (single isomer, unassigned) [Example 24, 2,3-Dihydro-furo[2,3-b]pyridine-3-carboxylic acid 2,4-dichloro-6-hydroxymethyl-benzylamide] — 14-fold higher, 39.4 nM
- O=C(NCc1c(Cl)cc(Cl)cc1CO)C1COc2ncccc21 (single isomer, unassigned) [Example 25, 2,3-Dihydro-furo[2,3-b]pyridine-3-carboxylic acid 2,4-dichloro-6-hydroxymethyl-benzylamide] — within 1.5-fold, 2.7 nM
- O=C(NCc1c(Cl)cc(Cl)cc1Br)C1COc2ncccc21 (single isomer, unassigned) [Example 79, 2,3-Dihydro-furo[2,3-b]pyridine-3-carboxylic acid 2-bromo-4,6-dichloro-benzylamide] — 18-fold higher, 51.1 nM
